Activity calls are given as the source filed them. The rule behind the calls is not given here.

Holding throughout (format): functional, organism-based
In test [1] the test system is Rattus norvegicus. As to the kind of experiment: Carcinogenic activity on all sites after subcutaneous administration.
Test [2] relates to Rattus norvegicus. As to the kind of experiment: Carcinogenic activity on other sites after subcutaneous administration.
The subject of test [3] is Rattus norvegicus. The experiment in a line: Compound was tested for carcinogenic activity on liver after subcutaneous administration of the compound; + denotes carcinogenic activity.
The subject of test [4] is Rattus norvegicus. As to the kind of experiment: Carcinogenic activity on all sites after oral administration.
The subject of test [5] is Rattus norvegicus. As to the kind of experiment: Carcinogenic activity on breast after oral administration of the compound.
For test [6], the system named is Rattus norvegicus. The experiment in a line: Compound was tested for carcinogenic activity on mixed data after oral administration of the compound; + denotes four or five active sites.
Test [7] deals with Rattus norvegicus. As to the kind of experiment: Carcinogenic activity on ear duct after oral administration.
The test system of test [8] is Rattus norvegicus. The experiment in a line: Carcinogenic activity on other sites after oral administration.
Test [9] relates to Rattus norvegicus. The experiment in a line: Compound was tested for carcinogenic activity on other sites after various routes administration of the compound; + denotes carcinogenic activity.
The test system of test [10] is Rattus norvegicus. As to the kind of experiment: Compound was tested for carcinogenic various routes subcutaneous administration of the compound; + denotes carcinogenic activity.
In test [11] the test system is Rattus norvegicus. The experiment in a line: Compound was tested for carcinogenic activity on breast after various routes administration of the compound; + denotes carcinogenic activity.
Test [12] relates to Rattus norvegicus. As to the kind of experiment: Compound was tested for carcinogenic activity on liver after various routes administration of the compound; + denotes carcinogenic activity.
Test [13] concerns Rattus norvegicus. The experiment in a line: Compound was tested for carcinogenic activity on mixed data after various routes administration of the compound; + denotes carcinogenic activity.
Test [14] concerns Rattus norvegicus. As to the kind of experiment: Compound was tested for carcinogenic activity on ear duct after various routes administration of the compound; + denotes carcinogenic activity.
Test [15] relates to Rattus norvegicus. As to the kind of experiment: Compound was tested for carcinogenic activity on all sites after topical administration of the compound; + denotes carcinogenic activity.
Test [16] has as its system Rattus norvegicus. As to the kind of experiment: Compound was tested for carcinogenic activity on breast after topical administration of the compound; + denotes carcinogenic activity.
The test system of test [17] is Rattus norvegicus. As to the kind of experiment: Compound was tested for carcinogenic activity on other sites after topical administration of the compound; + denotes carcinogenic activity.
For test [18], the system named is Rattus norvegicus. As to the kind of experiment: Carcinogenic activity on liver after oral administration.
Test [19] relates to Rattus norvegicus. As to the kind of experiment: Compound was tested for carcinogenic activity on ear duct after oral administration of the compound; na denotes not available.
In test [20] the test system is Rattus norvegicus. The experiment in a line: Compound was tested for carcinogenic activity on all sites after various routes administration of the compound; + denotes carcinogenic activity.
The subject of test [21] is Rattus norvegicus. The experiment in a line: Compound was tested for carcinogenic activity on mixed data after various routes administration of the compound; + denotes four or five active sites.
For test [22], the system named is Rattus norvegicus. The experiment in a line: Tested for carcinogenic activity on breast after oral administration of the compound; - denotes non carcinogenic activity.
The subject of test [23] is Rattus norvegicus. The experiment in a line: Carcinogenic activity on ear duct after oral administration of the compound; - denotes non carcinogenic activity.
Test [24] relates to Rattus norvegicus. The experiment in a line: Carcinogenic activity after oral administration.
The subject of test [25] is Rattus norvegicus. As to the kind of experiment: Carcinogenic activity on mixed data after oral administration.
Test [26] has as its system Rattus norvegicus. As to the kind of experiment: Carcinogenic activity on liver after oral administration of the compound.
The subject of test [27] is Rattus norvegicus. The experiment in a line: Compound was tested for carcinogenic activity on all sites after subcutaneous administration of the compound; + denotes carcinogenic activity.
For test [28], the system named is Rattus norvegicus. The experiment in a line: Carcinogenic activity on ear duct after subcutaneous administration.
The subject of test [29] is Rattus norvegicus. As to the kind of experiment: Carcinogenic activity on breast after subcutaneous administration.
For test [30], the system named is Rattus norvegicus. As to the kind of experiment: Compound was tested for carcinogenic activity on mixed data after subcutaneous administration of the compound; + denotes carcinogenic activity.
The test system of test [31] is Rattus norvegicus. As to the kind of experiment: Compound was tested for carcinogenic activity on ear duct after oral administration of the compound; na denotes data not available.
The test system of test [32] is Rattus norvegicus. As to the kind of experiment: Compound was tested for carcinogenic activity on mixed data after various routes administration of the compound; + denotes carcinogenic activity.
Test [33] deals with Rattus norvegicus. As to the kind of experiment: Compound was tested for carcinogenic activity on ear duct after oral administration of the compound; + denotes carcinogenic activity.
The subject of test [34] is Rattus norvegicus. As to the kind of experiment: Carcinogenic activity on all sites after intraperitoneal administration.
The test system of test [35] is Rattus norvegicus. The experiment in a line: Carcinogenic activity on breast after intraperitoneal administration.
Test [36] concerns Rattus norvegicus. The experiment in a line: Compound was tested for carcinogenic activity on other sites after intraperitoneal administration of the compound; + denotes carcinogenic activity.
Test [37] concerns Rattus norvegicus. The experiment in a line: Carcinogenic activity on liver after subcutaneous administration.
The subject of test [38] is Rattus norvegicus. The experiment in a line: Compound was tested for carcinogenic activity on liver after oral administration of the compound; na denotes data not available.
Test [39] relates to Rattus norvegicus. The experiment in a line: Compound was tested for carcinogenic activity on all sites after subcutaneous administration of the compound; + denotes carcinogenic activity.
The subject of test [40] is Rattus norvegicus. The experiment in a line: Compound was tested for carcinogenic activity on other sites after subcutaneous administration of the compound; + denotes carcinogenic activity.

For `Nc1ccc(-c2ccc(F)cc2)cc1`, the Activity result in [1], in [2] and in test [3] was “Carcinogenic activity” throughout.

On to `CC(=O)Nc1ccc(-c2ccccc2)cc1`, for which the Activity entry in [4], in [5], in test [6], in test [7] and in test [8] was “Carcinogenic activity” throughout.

For `Nc1ccc2c(c1)Cc1ccccc1-2`, the Activity entry in test [9], in test [10], in [11], in test [12], in test [13] and in test [14] was “Carcinogenic activity” throughout.

On to `Nc1ccc2cc3ccccc3cc2c1`, for which the Activity entry in test [15], in test [16] and in test [17] was “Carcinogenic activity” throughout.

`COc1c(N)ccc2c1Cc1ccccc1-2`: the Activity result in test [4], in test [18] and in [8] was “Carcinogenic activity” each time. In [19], the result was inactive.

For the compound `CC(=O)Nc1ccc2c(c1)Cc1ccccc1-2`, the Activity result in test [9], in [20], in test [11], in [12], in [14] and in [21] was “Carcinogenic activity” throughout.

As for `Cc1ccc(C(=O)Nc2ccc(S(=O)(=O)O)c3cc(S(=O)(=O)O)cc(S(=O)(=O)O)c23)cc1NC(=O)c1cccc(NC(=O)Nc2cccc(C(=O)Nc3cc(C(=O)Nc4ccc(S(=O)(=O)O)c5cc(S(=O)(=O)O)cc(S(=O)(=O)O)c45)ccc3C)c2)c1`, the result in test [4], in [18] and in [8] was Active. The outcome in [22] and in test [23] was inactive.

For the compound `CC(=O)Nc1ccc2[nH]c3ccccc3c2c1`, the outcome in test [4], in [22], in [24], in test [25], in test [26] and in test [23] was inactive.

On to `CC(=O)Nc1ccc(-c2ccc(NC(C)=O)cc2C)cc1`, for which the Activity entry in [4], in [5], in [6], in [7] and in test [8] was “Carcinogenic activity” in each case.

In the case of `CCN(CC)c1ccc(/C=C/c2ccccc2)cc1`, the Activity result in test [27] and in test [28] was “Carcinogenic activity” in each case.

With `ONc1ccc2c(c1)Cc1ccccc1-2`, the Activity entry in test [1], in [29], in [2], in [30] and in test [28] was “Carcinogenic activity” each time.

In the case of `Cc1cc(-c2ccc(N)c(C)c2)ccc1N`, the Activity entry in test [1], in [29], in test [2], in test [30] and in test [7] was “Carcinogenic activity” each time.

Turning to `Nc1c2ccccc2cc2ccccc12`, the Activity entry in test [1], in test [29] and in [30] was “Carcinogenic activity” in each case.

In the case of `COc1cccc(-c2cccc(OC)c2N)c1N`, in [31], the result was inactive.

`CC(=O)N(O)c1ccc2c(c1)Cc1ccccc1-2`: the Activity result in [9], in test [20], in test [11], in test [12], in [32] and in test [14] was “Carcinogenic activity” each time.

Consider `CN(C)c1ccc(-c2ccccc2)cc1`, for which the Activity entry in [4], in [5], in test [25], in [33] and in [8] was “Carcinogenic activity” throughout.

In the case of `O=C(c1ccccc1)N(O)c1ccc2c(c1)Cc1ccccc1-2`, the Activity entry in test [34], in test [35] and in [36] was “Carcinogenic activity” throughout.

On to `CC(=O)Nc1ccc2c(c1)C(=O)c1ccccc1-2`, for which the Activity entry in [4], in test [5] and in test [18] was “Carcinogenic activity” in each case. In test [31], the result was inactive.

As to `ONc1ccc2ccccc2c1`, the Activity result in test [34] and in test [36] was “Carcinogenic activity” in each case.

As for `Nc1ccc(-c2ccc(N)cc2)cc1`, the Activity result in [1], in [2], in test [37], in [30] and in [28] was “Carcinogenic activity” in each case.

In the case of `Nc1ccc(Cc2ccc(N)cc2)cc1`, the result in test [38] was inactive.

Regarding `Cc1cccc(-c2ccc(N)cc2C)c1`, the Activity entry in test [39] and in [40] was “Carcinogenic activity” throughout.

Regarding `O=S(=O)(c1ccccc1)N(O)c1ccc2c(c1)Cc1ccccc1-2`, the Activity entry in [34], in [35] and in test [36] was “Carcinogenic activity” in each case.

Regarding `Nc1ccc2ccccc2c1`, the outcome in [4], in [22], in test [24], in test [25], in test [26] and in test [23] was inactive.

(Values after ChEMBL document CHEMBL1121791, “Computer-assisted structure-activity studies of chemical carcinogens. Aromatic amines” (J Med Chem, 1981).)
